The source of these data is patent EP4678638A1, “NEW E3 UBIQUITIN LIGASE LIGAND, PROTEIN DEGRADATION AGENT AND USE THEREOF” (priority 2023, dated 2024).

Holding throughout (format): cell-based, Human
For assay [1], the system named is PC-9. Nature of the assay: CCK-8 proliferation, PC-9. The note with it: Homo sapiens, PC-9; CCK-8; 96 hours; read-out: Inhibitory activity (IC50) on tumor cell proliferation, PC-9. Summed up:
(§1)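 Cells seeded, then after 24 h treated with 10 concentrations (top 10 µM, 5-fold serial dilution) for a line-specific time at 37°C, 5% CO2. Viability read by CCK-8; IC50 fitted from growth-inhibition curves.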

Assay [2] relates to EGFR. Put plainly: Western blot degradation of EGFR (H1975 Cell). The note with it: Table D2. The method, boiled down: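 Quantification by ImageJ densitometry of Western blot bands: DC50 is the fitted concentration halving band intensity relative to DMSO. Percent remaining uses internal-control normalization, and degradation rate is its complement.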
Assay [3] relates to H1975. Put plainly: CCK-8 proliferation, NCI-H1975 (H1975). The note with it: Homo sapiens, NCI-H1975; CCK-8; 96 hours; read-out: Inhibitory activity (IC50) on tumor cell proliferation, H1975. The method, boiled down:
as §1

Assay [4] has as its system H1975-1µM Osimertinib cells. Put plainly: CCK-8 proliferation, osimertinib-resistant H1975 cells. The note with it: Homo sapiens, NCI-H1975; CCK-8; osimertinib-resistant H1975 cells obtained by treating H1975 cells with 1 µM Osimertinib for 3 months; read-out: Inhibitory activity (IC50) on tumor cell proliferation, H1975-1µm Osimertinib. As to the method:
The tumor cells used herein were cultured in a cell culture medium listed in table A1 at 37°C in an incubator with 5% CO2. Prior to experimentation, all cell lines used were correctly identified by STR profiling, and tested negative for mycoplasma contamination using a mycoplasma detection kit through routine screenings. Table A1. Tumor cells and cell culture medium used in the present disclosure
IC50 values of the compounds of the present disclosure (including the compounds in Table 1, and compounds of examples) were measured using the Meilun Cell Counting Kit-8 kit from Dalian Meilun Biotech Co., Ltd. Assay details are as follows: tumor cells were seeded in a 96-well plate at a density listed in Table A2. After 24h, 100 µL of the inoculated cells were treated with 0.5µL of the compounds of the present disclosure (including the compounds in Tables 1 and 2, and compounds of examples) at 10 different successively decreasing concentrations (starting at the highest concentration of 10µM; 5-fold serial dilutions). After the cells were treated with the compounds of the present disclosure for a period of time, the cell viability detection reagent was added to the culture medium for cell viability assessment according to the instructions provided with the CCK-8 kit. […] The growth inhibition of the compounds of the present disclosure on cells was plotted by Prism Graphpad software, and the IC50 values of the compounds of the present disclosure were calculated therefrom. […] Seeding protocol and treatment time for tumor cells

For assay [5], the system named is HCC827. Nature of the assay: CCK-8 proliferation, HCC827. The note with it: Homo sapiens, HCC827; CCK-8; 96 hours; read-out: Inhibitory activity (IC50) on tumor cell proliferation, HCC827. Summed up:
as §1

As for `COc1cc(N2CCN(Cc3cccc(N4CCC(=O)NC4=O)c3)CC2)c(C)cc1Nc1ncc(Br)c(Nc2ccc3nccnc3c2P(C)(C)=O)n1` [GT-04206, 1-(3-((4-(4-((5-bromo-4-((5-(dimethylphosphoryl)quinoxalin-6-yl)amino)pyrimidin-2-yl)amino)-5-methoxy-2-methylphenyl)piperazin-1-yl)methyl)phenyl)dihydropyrimidine-2,4(1H,3H)-dione], the IC50 in assay [1], in assay [3], in assay [4] and in assay [5] was 100 to 500 nM each time. For the same molecule, the “Degradation of substrate protein EGFR (substrate protein remaining %)” value (shortened to “Degradation … (substrate protein remaining %)”) in assay [2] is recorded as “A (A is defined as 0% ≤ substrate protein remaining % ≤ 80%)”.

For the molecule `COc1cc(N2CCC(N(C)Cc3cccc(N4CCC(=O)NC4=O)c3)CC2)c(C)cc1Nc1ncc(Br)c(Nc2ccc3nccnc3c2P(C)(C)=O)n1` [GT-04214, 1-(3-(((1-(4-((5-bromo-4-((5-(dimethylphosphoryl)quinoxalin-6-yl)amino)pyrimidin-2-yl)amino)-5-methoxy-2-methylphenyl)piperidin-4-yl)(methyl)amino)methyl)phenyl)dihydropyrimidine-2,4(1H,3H)-dione], the IC50 was 50 to 100 nM in assay [1], 10 to 50 nM in assay [3], 100 to 500 nM in assay [4] and 100 to 500 nM in assay [5]. In assay [2], the “Degradation … (substrate protein remaining %)” value is recorded as “A (A is defined as 0% ≤ substrate protein remaining % ≤ 80%)”.

As for `O=C1CCN(c2ccc(CN3CCN(C4CCN(c5ccc(NC6=NC=C7N=C(Nc8ccccc8)N(C8CCCC8)C7N6)cc5)CC4)CC3)cn2)C(=O)N1` (stereo not shown) [GT-05942, 1-(5-((4-(1-(4-((9-cyclopentyl-8-(phenylamino)-4,9-dihydro-3H-purin-2-yl)amino)phenyl)piperidin-4-yl)piperazin-1-yl)methyl)pyridin-2-yl)dihydropyrimidine-2,4(1H,3H)-dione], the results for the IC50 in assay [1], in assay [4] and in assay [5] were 1 to 10 nM, 500 to 1000 nM and 10 to 50 nM, respectively. In addition, the “Degradation … (substrate protein remaining %)” value in assay [2] is “A (A is defined as 0% ≤ substrate protein remaining % ≤ 80%)”.

Regarding `COc1cc(N2CCC(N(C)Cc3ccc(N4CCC(=O)NC4=O)cn3)CC2)c(C)cc1Nc1ncc(Br)c(Nc2ccc3nccnc3c2P(C)(C)=O)n1` [GT-05952, 1-(6-(((1-(4-((5-bromo-4-((5-(dimethylphosphoryl)quinoxalin-6-yl)amino)pyrimidin-2-yl)amino)-5-methoxy-2-methylphenyl)piperidin-4-yl)(methyl)amino)methyl)pyridin-3-yl)dihydropyrimidine-2,4(1H,3H)-dione], the IC50 in assay [1] was 100 to 500 nM; in assay [4], 500 to 1000 nM; in assay [5] it was 500 to 1000 nM. In assay [2], the “Degradation … (substrate protein remaining %)” value is on record as “A (A is defined as 0% ≤ substrate protein remaining % ≤ 80%)”.

On to `CC(C)n1nc(N2CCC(N(C)Cc3ccc(N4CCC(=O)NC4=O)cc3)CC2)c2cnc(Nc3ccnc(-c4cnn(S(=O)(=O)C5CC5)c4)n3)cc21` [GT-06021, 1-(4-(((1-(6-((2-(1-(cyclopropylsulfonyl)-1H-pyrazol-4-yl)pyrimidin-4-yl)amino)-1-isopropyl-1H-pyrazolo[4,3-c]pyridin-3-yl)piperidin-4-yl)(methyl)amino)methyl)phenyl)dihydropyrimidine-2,4(1H,3H)-dione], for which the IC50 lay within 100 to 500 nM in assay [1], 500 to 1000 nM in assay [4] and 100 to 500 nM in assay [5]. In assay [2], the “Degradation … (substrate protein remaining %)” value was “A (A is defined as 0% ≤ substrate protein remaining % ≤ 80%)”.
